Where “and” joins values, the source holds several entries; their conditions need not be identical. Equal values may be shown once. Read-outs that look alike come from different tables or passages of the source. One block for each molecule: values may come before it.
Columns and labels:
[1] = test system: ZR-75-1-Zellen; experiment: Inhibition of RNA synthesis in isolated human mammary tumour cells (incorporation of labelled uridine); assay type: cell-based; details: for inhibition at 0.1 µM / inhibition at 1 µM / inhibition at 4 µM: Homo sapiens, ZR-75-1, 48 h; for Prozentuale Hemmung der RNS-Synthese: 2880 min
Description: […] positive [ER +] Mammatumor-Zellen aus Patienten zu isolieren und in vitro kontinuierlich zu […] sog. […] in vivo beobachteten morphologischen […] und […] somit […] zur Testung von Antiestrogenen dar,da direkte Aussagen über den Einfluß auf den in vivo zu […]. […] Der Einfluß der beanspruchten Verbindunger. auf das Wachstum dieser Zellen wurde über den Einbau von […] bzw. Thymidin nach der Methode von Lippman, M. et al kontrolliert. […] Thymidin versetzt und nach einer Stunde die Einbaurate des markierten Materials in den Zellen bestimmt.

[2] = molecular target: T1, Estradiolrezeptor (Oryctolagus cuniculus, UniProt G1SML6); experiment: Binding affinity to the estradiol receptor: displacement of [3H]-estradiol in rabbit uterus cytosol; design: species or system Kaninchen (Neuseeländer); details: molar concentration displacing 50% [3H]-Estradiol from the receptor, 18 h at 4° C, 2.5 ×10^-9 M [3H]-Estradiol, read-out: ED50% (the source's name)
T1 construct: Das Uteruscytosol von weiblichen, präpubertären, weißen 2 kg schweren Kaninchen (Neuseeländer); from tissue; host or cells: uterus cytosol of female prepubertal New Zealand white rabbits
T1 sequence (G1SML6 1-598): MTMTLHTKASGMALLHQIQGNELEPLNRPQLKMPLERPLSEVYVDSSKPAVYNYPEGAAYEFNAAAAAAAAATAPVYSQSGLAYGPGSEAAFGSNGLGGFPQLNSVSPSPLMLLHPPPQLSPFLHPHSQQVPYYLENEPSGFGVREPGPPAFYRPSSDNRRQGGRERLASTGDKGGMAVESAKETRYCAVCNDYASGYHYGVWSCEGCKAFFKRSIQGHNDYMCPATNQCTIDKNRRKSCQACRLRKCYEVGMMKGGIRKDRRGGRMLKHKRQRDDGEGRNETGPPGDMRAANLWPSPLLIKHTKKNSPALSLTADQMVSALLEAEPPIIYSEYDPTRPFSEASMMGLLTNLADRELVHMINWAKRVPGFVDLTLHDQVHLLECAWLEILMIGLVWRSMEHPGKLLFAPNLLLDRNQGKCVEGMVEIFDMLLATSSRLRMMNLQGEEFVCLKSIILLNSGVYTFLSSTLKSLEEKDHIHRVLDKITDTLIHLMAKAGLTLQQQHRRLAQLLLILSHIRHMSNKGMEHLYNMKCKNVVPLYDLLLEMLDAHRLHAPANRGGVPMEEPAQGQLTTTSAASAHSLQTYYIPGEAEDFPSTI
Description: Die Messung der Eindungsaffinität zum Estradiolrezeptor erfolgte nach der Eethode von N. Devleeschouwer, G. Leclercq, A. Danguy und J. C. Heuson LEurop. J. Cancer, 14 ,721 - 723 (197o)].
Testsubstanz verschiedener Konzentration inkubiert.Die Bindungsaffinität zum Estradiolrezeptor wird ausgedrückt durch die aen. […] Testsubstanz, welche eine 5C-prcz.

[3] = test system: ZR-75-1-Zellen; experiment: Inhibition of RNA synthesis in ZR-75-1 cells in the presence of 17-β-estradiol; assay type: cell-based; details: Homo sapiens, compound 1 x 10^-6 [M] + 17-β-Estradiol 1 x 10^-8 [M], 48 h incubation, read-out: Prozentuale Hemmung der RNS-Synthese
Description: Zur […] vivo wurde die Potenz der antiestrogenen Wirkung der beanspruchten Verbindungen in Gegenwart eines Estrogens geprüft. […] Thymidin hinzugefügt und nach einer Stunde die Einbaurate des markierten Materials in gen Zellen bestimmt.[Tab.4]

[4] = read-out: Prozentuale Hemmung der RNS-Synthese

SMILES: CC/C(=C(/c1ccc(OCCN(C)C)cc1)c1cccc(O)c1)c1cccc(C)c1 [Verbindung 1, (E)-1-[4'-(2-Dimethylaminoethoxy)phenyl]-1-(3'-hydroxyphenyl)-2-(3'-methylphenyl)-but-1-en]
inhibition at 0.1 µM [1, 4]: 47% | inhibition at 1 µM [1, 4]: 74% | inhibition at 4 µM [1, 4]: 100% | IC50 [2]: 35 nM | inhibition at 1 µM [3]: 74%

SMILES: CC/C(=C(/c1ccc(OCCN(CC)CC)cc1)c1cccc(O)c1)c1ccc(OC)cc1 [Verbindung 7, (E)-1-[4'-(2-Diethylaminoethoxy)phenyl]-1-(3'-hydroxyphenyl)-2-(4'methoxyphenyl)-but-l-en]
inhibition at 0.1 µM [1, 4]: 4% | inhibition at 1 µM [1, 4]: 37% | inhibition at 4 µM [1, 4]: 91% | inhibition at 1 µM [3]: 41%

SMILES: CC/C(=C(/c1ccc(OCCN(C)C)cc1)c1cccc(O)c1)c1cccc(O)c1 [Verbindung 4, (E)-1-[4'-(2-Dimethylaminoethoxy)phenyl]-1,2-bis-(3'-hydroxyphenyl)-but-1-en]
inhibition at 0.1 µM [1, 4]: 33% | inhibition at 1 µM [1, 4]: 73% | inhibition at 4 µM [1, 4]: 100% | inhibition at 1 µM [3]: 79%

SMILES: CC/C(=C(/c1ccc(OCCN(C)C)cc1)c1cccc(O)c1)c1ccc(Br)cc1 [Verbindung 6, (E)-2-(4'-Bromphenyl)-1-[4'-(2-dimethylaminoethoxy)phenyl]-1-(3'-hydroxyphenyl)-but-l-en]
inhibition at 0.1 µM [1, 4]: 47% | inhibition at 1 µM [1, 4]: 70% | inhibition at 4 µM [1, 4]: 100% | inhibition at 1 µM [3]: 74%

SMILES: CC/C(=C(\c1ccccc1)c1ccc(OCCN(C)C)cc1)c1ccccc1 [Tamoxifen, (Z)-1-[4'-(2-Dimetrylaminoethcxy)phenyl]-1,2-diphenyl-but-1-en, reference compound]
inhibition at 1 µM ([1]; read-out: Prozentuale Hemmung der RNS-Synthese, substance concentration 1 x 10^-6[M], 48 h incubation, Tamoxifen run in each experiment): 43% | inhibition at 4 µM ([1]; read-out: Prozentuale Hemmung der RNS-Synthese, substance concentration 4 x 10^-6[M], 48 h incubation, Tamoxifen run in each experiment): 99% | Prozentuale Hemmung der RNS-Synthese ([1]; substance concentration 1 x 10^-6[M], 48 h incubation, Tamoxifen run in each experiment, 1 µM): 44% and 39% and 59% | Prozentuale Hemmung der RNS-Synthese ([1]; substance concentration 1 x 10^-6[M], 48 h incubation, Tamoxifen run in each experiment, listed as Taxoxifen, 1 µM): 46% | Prozentuale Hemmung der RNS-Synthese ([1]; substance concentration 1 x 10^-7[M], 48 h incubation, Tamoxifen run in each experiment, 0.1 µM): 29% and 16% | Prozentuale Hemmung der RNS-Synthese ([1]; substance concentration 1 x 10^-7[M], 48 h incubation, Tamoxifen run in each experiment, 0.1 µM, listed as Taxoxifen): 2% | Prozentuale Hemmung der RNS-Synthese ([1]; substance concentration 4 x 10^-6[M], 48 h incubation, Tamoxifen run in each experiment, 4 µM): 100% | Prozentuale Hemmung der RNS-Synthese ([1]; substance concentration 4 x 10^-6[M], 48 h incubation, Tamoxifen run in each experiment, listed as Taxoxifen, 4 µM): 93%

The next lines start with results.

IC50 [2]: 28 nM
SMILES: CC/C(=C(/c1ccc(OCCN(C)C)cc1)c1cccc(O)c1)c1ccc(OC)cc1 [Verbindung 3, (E)-1-[4'-(2-Dimethylaminoethoxy)phenyl]-1-(3'-hydroxyphenyl)-2-(4'-methoxyphenyl)-but-1-en]
inhibition at 0.1 µM [1, 4]: 36% | inhibition at 1 µM [1, 4]: 68% | inhibition at 4 µM [1, 4]: 100% | inhibition at 1 µM [3]: 65%

IC50 [2]: 85 nM
SMILES: CC/C(=C(/c1ccc(OCCN(C)C)cc1)c1cccc(O)c1)c1ccc(Cl)cc1 [Verbindung 5]
inhibition at 0.1 µM [1, 4]: 41% | inhibition at 1 µM [1, 4]: 61% | inhibition at 4 µM [1, 4]: 100%

IC50 [2]: 73 nM
SMILES: CC/C(=C(/c1ccc(OCCN(C)C)cc1)c1cccc(O)c1)c1ccc(C)cc1 [Verbindung 2]
inhibition at 0.1 µM [1, 4]: 42% | inhibition at 1 µM [1, 4]: 62% | inhibition at 4 µM [1, 4]: 100% | inhibition at 1 µM [3]: 58%

From EP0107208A1, “1,1,2-Triphenyl-but-1-ene derivatives, process for their preparation and their use as medicines” (Klinge Pharma GmbH, priority 1982, dated 1984)
